Measured values: patent US20250051335A1, “TAU-TUBULIN KINASE (TTBK) INHIBITOR COMPOUNDS” (CONSEJO SUPERIOR DE INVESTIGACIONES CIENTÍFICAS (CSIC), priority 2021, published 2025)

How the values were obtained:
[1] = Permeability of the blood-brain barrier by PAMPA (porcine brain lipid); conditions: for Prediction of crossing the BBB: based on Ep correlated with 10 control drugs; for Papp at 2.5 h: pig, pH 7.4
[2] = biological target: recombinant human enzyme TTBK1 (1-1321) (Homo sapiens (Human), UniProt Q5TCY1); experiment: Enzymatic inhibition of TTBK1 (33P-ATP radiometric kinase assay); type: biochemical; conditions: recombinant human TTBK1 (1-1321), 0.005 mM ATP, 30 minutes at room temperature
Chain of recombinant human enzyme TTBK1 (1-1321) (Q5TCY1 whole entry): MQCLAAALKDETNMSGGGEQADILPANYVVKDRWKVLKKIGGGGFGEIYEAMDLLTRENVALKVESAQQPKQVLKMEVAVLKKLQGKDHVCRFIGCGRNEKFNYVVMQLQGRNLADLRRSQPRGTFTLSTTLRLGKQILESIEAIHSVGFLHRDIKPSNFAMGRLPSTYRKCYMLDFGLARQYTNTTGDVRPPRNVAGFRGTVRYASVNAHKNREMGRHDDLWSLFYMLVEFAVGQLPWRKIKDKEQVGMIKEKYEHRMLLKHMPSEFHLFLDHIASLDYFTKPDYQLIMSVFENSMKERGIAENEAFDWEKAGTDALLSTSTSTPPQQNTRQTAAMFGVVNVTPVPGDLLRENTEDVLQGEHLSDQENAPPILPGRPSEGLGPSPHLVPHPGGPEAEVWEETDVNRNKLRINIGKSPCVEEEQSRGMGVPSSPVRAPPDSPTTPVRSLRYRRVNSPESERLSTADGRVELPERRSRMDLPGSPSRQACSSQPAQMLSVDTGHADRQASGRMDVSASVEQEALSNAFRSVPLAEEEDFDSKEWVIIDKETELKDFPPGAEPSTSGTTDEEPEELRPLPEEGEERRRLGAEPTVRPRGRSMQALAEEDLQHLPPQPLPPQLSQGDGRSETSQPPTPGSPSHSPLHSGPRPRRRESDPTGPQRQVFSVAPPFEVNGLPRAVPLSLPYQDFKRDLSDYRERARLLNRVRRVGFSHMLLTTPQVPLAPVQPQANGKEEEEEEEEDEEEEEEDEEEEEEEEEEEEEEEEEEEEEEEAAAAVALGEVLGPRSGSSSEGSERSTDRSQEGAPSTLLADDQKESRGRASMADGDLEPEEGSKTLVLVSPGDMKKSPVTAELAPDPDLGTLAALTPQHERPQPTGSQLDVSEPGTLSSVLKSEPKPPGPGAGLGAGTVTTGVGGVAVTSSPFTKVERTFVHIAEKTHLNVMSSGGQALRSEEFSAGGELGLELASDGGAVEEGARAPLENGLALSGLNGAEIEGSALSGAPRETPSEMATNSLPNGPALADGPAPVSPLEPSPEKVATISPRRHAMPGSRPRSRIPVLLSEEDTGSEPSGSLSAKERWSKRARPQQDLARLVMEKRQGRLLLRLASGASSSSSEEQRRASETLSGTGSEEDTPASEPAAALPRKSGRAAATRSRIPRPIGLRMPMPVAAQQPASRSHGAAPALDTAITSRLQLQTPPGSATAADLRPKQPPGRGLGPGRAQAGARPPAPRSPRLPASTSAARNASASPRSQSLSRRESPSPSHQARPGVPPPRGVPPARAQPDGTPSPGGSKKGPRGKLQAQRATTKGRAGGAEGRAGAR
Method: (§1) The final reaction mixture contains the peptide at a concentration of 0.3 mM, 10 mM magnesium acetate and 0.005 mM [33P-γ-ATP](50-1000 cpm/pmol). The reaction mixture is incubated for 30 minutes at room temperature and the reaction is stopped after the addition of 5 μl of orthophosphoric acid.

[3] = biological target: recombinant human enzyme TTBK2(1-450) (Homo sapiens (Human), UniProt Q6IQ55); experiment: Enzymatic inhibition of TTBK2 (33P-ATP radiometric kinase assay); type: biochemical; conditions: recombinant human TTBK2(1-450), 0.005 mM ATP, 30 minutes at room temperature
Chain of recombinant human enzyme TTBK2(1-450) (Q6IQ55 1-450): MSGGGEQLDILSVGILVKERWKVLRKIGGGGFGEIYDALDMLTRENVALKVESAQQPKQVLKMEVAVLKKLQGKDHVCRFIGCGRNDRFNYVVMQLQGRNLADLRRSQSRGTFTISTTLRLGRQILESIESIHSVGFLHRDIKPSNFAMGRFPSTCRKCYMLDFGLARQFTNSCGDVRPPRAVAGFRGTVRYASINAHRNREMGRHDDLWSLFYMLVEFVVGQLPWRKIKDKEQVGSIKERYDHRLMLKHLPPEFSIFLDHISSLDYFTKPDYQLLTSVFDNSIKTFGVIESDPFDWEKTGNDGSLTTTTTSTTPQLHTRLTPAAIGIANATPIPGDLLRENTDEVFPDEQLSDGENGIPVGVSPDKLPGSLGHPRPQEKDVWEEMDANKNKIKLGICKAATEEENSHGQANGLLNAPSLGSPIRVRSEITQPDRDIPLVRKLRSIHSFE
Method: as §1

Prediction of crossing the BBB [1]	Papp at 2.5 h [1]	Structure (SMILES)	IC50 [2]	IC50 [3]
CNS+	14.3 ± 1.1 ×10⁻⁶ cm/s	O=[N+]([O-])c1ccc(Oc2ccc(Nc3ncnc4[nH]ccc34)cc2)cc1 [Compound 8, N-[4-(4-nitrophenoxy)phenyl]-7H-pyrrolo[2,3-d]pyrimidin-4-amine]	–	–
CNS+	18.7 ± 1.4 ×10⁻⁶ cm/s	Cc1ccc(Oc2ccc(Nc3ncnc4[nH]ccc34)cc2)cc1 [Compound 10, N-[4-(4-methylphenoxy)phenyl]-7H-pyrrolo[2,3-d]pyrimidin-4-amine]	–	–
CNS+	14 ± 0.4 ×10⁻⁶ cm/s	Cc1cccc(Oc2ccc(Nc3ncnc4[nH]ccc34)cc2)c1 [Compound 11, N-[4-(3-methylphenoxy)phenyl]-7H-pyrrolo[2,3-d]pyrimidin-4-amine]	–	–
CNS+	8.4 ± 1.6 ×10⁻⁶ cm/s	Clc1cccc(Oc2ccc(Nc3ncnc4[nH]ccc34)cc2)c1 [Compound 12, N-[4-(3-chlorophenoxy)phenyl]-7H-pyrrolo[2,3-d]pyrimidin-4-amine]	–	> 100 µM
CNS+	6.8 ± 1.4 ×10⁻⁶ cm/s	FC(F)(F)c1cccc(Oc2ccc(Nc3ncnc4[nH]ccc34)cc2)c1 [Compound 13, N-[4-(3-trifluoromethylphenoxy)phenyl]-7H-pyrrolo[2,3-d]pyrimidin-4-amine]	–	–
CNS+	9.7 ± 1 ×10⁻⁶ cm/s	Clc1ccccc1Oc1ccc(Nc2ncnc3[nH]ccc23)cc1 [Compound 14, N-[4-(2-chlorophenoxy)phenyl]-7H-pyrrolo[2,3-d]pyrimidin-4-amine]	–	–
CNS+	17.3 ± 0.1 ×10⁻⁶ cm/s	Clc1ccc(Oc2ccc(Nc3ncnc4[nH]ccc34)cc2)c(Cl)c1 [Compound 16, N-[4-(2.4-chlorophenoxy)phenyl]-7H-pyrrolo[2,3-d]pyrimidin-4-amine]	2.3 ± 0.54 µM	5.72 ± 2.65 µM
CNS+	10.5 ± 0.7 ×10⁻⁶ cm/s	COc1cccc(Oc2ccc(Nc3ncnc4[nH]ccc34)cc2)c1 [Compound 17, N-[4-(3-methoxyphenoxy)phenyl]-7H-pyrrolo[2,3-d]pyrimidin-4-amine]	–	–
CNS+	7.5 ± 0.1 ×10⁻⁶ cm/s	Nc1nc(Nc2ccc(Oc3ccc(C(F)(F)F)cc3)cc2)c2cc[nH]c2n1 [Compound 18, N4-(4-(4-(trifluoromethyl)phenoxy)phenyl]-7H-pyrrolo[2,3-d]pyrimidine-2,4-diamine]	0.58 ± 0.08 µM	4.49 ± 1.16 µM
CNS+	9.7 ± 1 ×10⁻⁶ cm/s	Nc1nc(Nc2ccc(Oc3ccc(Cl)cc3)cc2)c2cc[nH]c2n1 [Compound 20, N4-(4-(4-chlorophenoxy)phenyl]-7H-pyrrolo[2,3-d]pyrimidine-2,4-diamine]	–	–
CNS+	18.3 ± 1.2 ×10⁻⁶ cm/s	c1ccc(COc2ccc(Nc3ncnc4[nH]ccc34)cc2)cc1 [Compound 24, N-[4-(benzyloxy)phenyl]-7H-pyrrolo[2,3-d]pyrimidin-4-amine]	–	–
CNS+	6.9 ± 0.6 ×10⁻⁶ cm/s	O=C(c1ccccc1)c1ccc(Nc2ncnc3[nH]ccc23)cc1 [Compound 25, (4-((7H-pyrrolo[2,3-d]pyrimidin-4-yl)amino)phenyl](phenyl)methanone]	–	–
CNS+	9.4 ± 0.4 ×10⁻⁶ cm/s	O=C(c1ccc(F)cc1)c1ccc(Nc2ncnc3[nH]ccc23)cc1 [Compound 26, (4-((7H-pyrrolo[2,3-d]pyrimidin-4-yl)amino)phenyl](4-fluorophenyl)methanone]	–	–

The remaining lines, values behind:

Structure (SMILES)	Prediction of crossing the BBB [1]	Papp at 2.5 h [1]	IC50 [2]	IC50 [3]
c1ccc(Oc2ccc(Nc3ncnc4[nH]ccc34)cc2)cc1 [Compound 1, N-(4-phenoxyphenyl)-7H-pyrrolo[2,3-d]pyrimidin-4-amine]	CNS+	23.2 ± 1.4 ×10⁻⁶ cm/s	–	–
Clc1ccc(Oc2ccc(Nc3ncnc4[nH]ccc34)cc2)cc1 [Compound 2, N-[4-(4-chlorophenoxy)phenyl]-7H-pyrrolo[2,3-d]pyrimidin-4-amine]	CNS+	11.5 ± 1 ×10⁻⁶ cm/s	–	–
Fc1ccc(Oc2ccc(Nc3ncnc4[nH]ccc34)cc2)cc1 [Compound 3, N-[4-(4-fluorophenoxy)phenyl]-7H-pyrrolo[2,3-d]pyrimidin-4-amine]	CNS+	15.6 ± 1.3 ×10⁻⁶ cm/s	0.77 ± 0.14 µM	3.02 ± 0.82 µM
COc1ccc(Oc2ccc(Nc3ncnc4[nH]ccc34)cc2)cc1 [Compound 5, N-[4-(4-methoxyphenoxy)phenyl]-7H-pyrrolo[2,3-d]pyrimidin-4-amine]	CNS+	11.8 ± 0.3 ×10⁻⁶ cm/s	–	–
FC(F)(F)c1ccc(Oc2ccc(Nc3ncnc4[nH]ccc34)cc2)cc1 [Compound 6, N-[4-(4-trifluoromethylphenoxy)phenyl]-7H-pyrrolo[2,3-d]pyrimidin-4-amine]	CNS+	7.6 ± 1.4 ×10⁻⁶ cm/s	–	–
Brc1ccc(Oc2ccc(Nc3ncnc4[nH]ccc34)cc2)cc1 [Compound 7, N-[4-(4-bromophenoxy)phenyl]-7H-pyrrolo[2,3-d]pyrimidin-4-amine]	CNS+	11 ± 1.2 ×10⁻⁶ cm/s	–	–
Nc1nc(Nc2ccc(Oc3cccc(C(F)(F)F)c3)cc2)c2cc[nH]c2n1 [Compound 19, N4-(4-(3-(trifluoromethyl)phenoxy)phenyl]-7H-pyrrolo[2,3-d]pyrimidine-2,4-diamine]	CNS+	7.7 ± 0.6 ×10⁻⁶ cm/s	1.32 ± 0.04 µM	3.9 ± 0.48 µM
Nc1nc(Nc2ccc(Oc3cccc(Cl)c3)cc2)c2cc[nH]c2n1 [Compound 21, N4-(4-(3-chlorophenoxy)phenyl)-7H-pyrrolo[2,3-d]pyrimidine-2,4-diamine]	CNS+	14.1 ± 0.4 ×10⁻⁶ cm/s	0.37 ± 0.12 µM	3.05 ± 0.07 µM
Nc1ccc(Sc2ccc(Nc3ncnc4[nH]ccc34)cc2)cc1 [Compound 23, N-[4-((4-aminophenyl)thio)phenyl]-7H-pyrrolo[2,3-d]pyrimidin-4-amine]	CNS+	4.7 ± 0.5 ×10⁻⁶ cm/s	–	–
